The subject of data set [1] is A. baumannii (ATCC 15308). The data set can be described thus: Minimal inhibitory concentration (MIC), broth microdilution. It counts as cell-based. Conditions: Mueller Hinton Broth, 5 × 10^5 CFU/mL, 0.04% BSA and 0.002% acetic acid, 20–22 h at 37 °C, duplicate. On the procedure: (§1) Assays were performed on three Gram-negative bacteria: E. coli (BW25113, Coli Genetic Stock Center), A. baumannii (ATCC 15308, CECT, Valencia, Spain), and Pseudomonas sp. (ATCC15915, CECT). The minimal inhibitory concentration (MIC) of each peptide was determined as described by Wiegand et al.. Peptide stocks in water were added to polypropylene 96-well plates (Greiner, Frickenhausen, Germany) and serially diluted from 100 to 0.2 μM. Fresh bacteria were incubated at 37 °C in Mueller Hinton Broth (MHB, Condalab, Torrejón de Ardoz, Spain) up to exponential growth and diluted to a final inoculum of 5 × 10^5 CFU/mL. BSA and acetic acid at 0.04% (w/v) and 0.002% (v/v) final concentration, respectively, were added to avoid peptide self-aggregation. Plates were incubated for 20–22 h at 37 °C. Each peptide was tested in duplicate. MIC values were the lowest peptide concentration where bacterial growth was not detected.

Data set [2] relates to E. coli (BW25113). The data set is described as above. It is filed as cell-based. Conditions: Mueller Hinton Broth, 5 × 10^5 CFU/mL, 0.04% BSA and 0.002% acetic acid, 20–22 h at 37 °C, duplicate. On the procedure: as §1
In data set [3] the test system is Pseudomonas sp. (ATCC15915). The data set is described as above. It counts as cell-based. Conditions: Mueller Hinton Broth, 5 × 10^5 CFU/mL, 0.04% BSA and 0.002% acetic acid, 20–22 h at 37 °C, duplicate. How it is done: as §1
Data set [4] has as its system 1BR3G human fibroblasts. Nature of the data set: Peptide cytotoxicity (Cell Titer Blue viability). Conditions: 24 h treatment, medium with 2% FBS, Cell Titer Blue fluorescence, triplicate. It counts as cell-based. The source says: Human HeLa S3 (cervix epithelial carcinoma), leukemia Jurkat E6.1 (T-cell lineage), U937 (histiocytic lymphoma), THP-1 (acute monocytic leukemia), and 1BR3G human fibroblasts were obtained from the Cell Lines Repository of the Institut Municipal d’Investigació Medica (Barcelona, Spain). BxPC3 (pancreas adenocarcinoma), A549 (lung carcinoma), SH-Sy5Y (neuroblastoma), Panc1 (epithelioid carcinoma), 786-O (renal cell adenocarcinoma), and HT29 (colorectal adenocarcinoma) were obtained from the Integrative Biomedical Materials and Nanomedicine lab at UPF (Barcelona, Spain). HeLa S3, Jurkat E6.1, U937, THP-1, Panc1, and 786-O were cultured in Roswell Park Memorial Institute medium (RPMI) supplemented with 10% fetal bovine serum (FBS) and 1% penicillin/streptomycin solution and maintained at 37 °C in a humidified atmosphere with 5% of CO2. 1BR3G, BxPC3, A549, and HT29 were cultured in Dulbecco’s Modified Eagle’s Medium (DMEM) supplemented with 10% FBS and 1% penicillin/streptomycin solution and maintained at 37 °C in a humidified atmosphere with 5% of CO2. SH-Sy5Y was cultured in DMEM supplemented with 15% FBS and 1% penicillin/streptomycin and maintained at 37 °C in a humidified atmosphere with 5% of CO2. Cultures were maintained at 10^5–10^6 cell/mL densities. For 1BR3G human fibroblasts, BxPC3, A549, SH-Sy5Y, Panc1, 786-O, and HT29 were split every time they reached 80–90% of confluence after harvesting with PBS and trypsin.
About 60,000 cells were added to different microfuge tubes containing 2-fold serial dilution of the peptide, with a final concentration in the range between 0.1–100 μM in RPMI containing 2% of FBS. After 30 min incubation at 37 °C and 5% of CO2, […] of medium containing approximately 10,000 treated cells were transferred to a 96-well plate. Then, 15 μL of Cell Titer Blue dye (Promega, Madison, WI, USA) was added, and plates were reincubated for 24 h. Fluorescence was read at 4 and 24 h after dye addition in a Synergy HTX (BioTek, Winooski, VT, USA) reader, with λexc = 560 nm and λem = 620 nm. In the case of adherent cultures, 5000 cells/well were seeded in 96-well plates. After 24 h incubation at 37 °C and 5% of CO2, the medium was removed, and a new medium with 2% of FBS containing the various 2-fold dilution of the peptides was added. After a further 30 min, 15 μL of Cell Titer Blue dye was added to each well, and the measurement was done as above. Relative viability was calculated relative to a cell with only 2% FBS in the corresponding medium as a control (100% viability). All assays were conducted in triplicate.

Data set [5] in a line: Serum stability. It is filed as in vitro ADME. Conditions: 0.5 mL each of human serum (Sigma-Aldrich) and peptide (1 mM in water), 37 °C with stirring, trichloroacetic acid treatment, HPLC / LC-MS. How it is done: Briefly, 0.5 mL each of human serum (Sigma-Aldrich, St. Louis, MO, USA) and peptide (1 mM in water) were mixed and incubated for 24 h at 37 °C with stirring. Aliquots (0.1 mL) were taken at 0, 1, 5, 10, 30, 120, 360 and 1440 min and treated with 20 μL of trichloroacetic acid (15% (v/v) in water). The suspension was centrifuged for 30 min at 4 °C and 13,000 rpm, and the supernatant was analyzed by HPLC as described above.

≈ marks a conversion by molar mass, not a printed value. Square brackets hold non-standard residues; d marks the D form. Peptide text beside a SMILES is read from it.

Experimental findings from PMC9495681, “Examining Topoisomers of a Snake-Venom-Derived Peptide for Improved Antimicrobial and Antitumoral Properties” (Biomedicines, 2022) are described below.

As for `CC[C@@H](C)[C@@H](NC(=O)[C@@H](CCCCN)NC(=O)[C@@H](CCCCN)NC(=O)[C@@H](CC(C)C)NC(=O)[C@@H](CCCNC(=N)N)NC(=O)[C@@H](CCCCN)NC(=O)[C@@H](CCCCN)NC(=O)[C@H](NC(=O)[C@@H](CO)NC(=O)[C@@H](CCCCN)NC(=O)[C@@H](CCCCN)NC(=O)[C@H](NC(=O)[C@@H](CCCCN)NC(=O)[C@@H](CCCCN)NC(=O)[C@@H](Cc1ccccc1)NC(=O)[C@@H](Cc1ccccc1)NC(=O)[C@@H](CCCCN)NC(=O)[C@@H](CCCCN)NC(=O)[C@@H](Cc1ccccc1)NC(=O)[C@@H](CCCNC(=N)N)NC(=O)[C@H](N)CCCCN)C(C)C)C(C)C)C(=O)N[C@H](Cc1ccccc1)C(=O)N[C@H](CCCCN)C(=O)N[C@H](CCCCN)C(=O)N1CCC[C@@H]1C(=O)N[C@H](CCSC)C(=O)N[C@@H](C(=O)N[C@@H](C(=O)NCC(=O)N[C@@H](C(=O)N[C@@H](C(=O)N[C@@H](C(=O)N1CCC[C@@H]1C(=O)N[C@H](Cc1ccccc1)C(N)=O)[C@H](C)CC)[C@H](C)O)C(C)C)[C@H](C)CC)C(C)C` [Ctn enantio] (H-[dK][dR][dF][dK][dK][dF][dF][dK][dK][dV][dK][dK][dS][dV][dK][dK][dR][dL][dK][dK][dI][dF][dK][dK][dP][dM][dV][dI]G[dV][dT][dI][dP][dF]-NH2), the “MIC A. baumannii” value in data set [1] was 1.56 µM (≈ 6.48 µg/mL). For the same compound, in data set [2], the “MIC E. coli” value is 0.39 µM (≈ 1.62 µg/mL). Besides, the “MIC Pseudomonas sp.” value in data set [3] worked out at 0.39 µM (≈ 1.62 µg/mL). In data set [4], the “IC50 (cell viability) human fibroblast 1BR3G” value worked out at 2700 nM. Besides, the share remaining at 24 h, 0.5 mM in data set [5] (24 h (1440 min), read-out: Peptide remaining in human serum after 24 h) came out at 30%.
For the compound `CC[C@H](C)[C@H](NC(=O)CNC(=O)[C@@H](NC(=O)[C@@H](NC(=O)[C@@H](NC(=O)[C@@H]1CCCN1C(=O)[C@@H](N)Cc1ccccc1)[C@@H](C)CC)[C@@H](C)O)C(C)C)C(=O)N[C@H](C(=O)N[C@@H](CCSC)C(=O)N1CCC[C@H]1C(=O)N[C@@H](CCCCN)C(=O)N[C@@H](CCCCN)C(=O)N[C@@H](Cc1ccccc1)C(=O)N[C@H](C(=O)N[C@@H](CCCCN)C(=O)N[C@@H](CCCCN)C(=O)N[C@@H](CC(C)C)C(=O)N[C@@H](CCCNC(=N)N)C(=O)N[C@@H](CCCCN)C(=O)N[C@@H](CCCCN)C(=O)N[C@H](C(=O)N[C@@H](CO)C(=O)N[C@@H](CCCCN)C(=O)N[C@@H](CCCCN)C(=O)N[C@H](C(=O)N[C@@H](CCCCN)C(=O)N[C@@H](CCCCN)C(=O)N[C@@H](Cc1ccccc1)C(=O)N[C@@H](Cc1ccccc1)C(=O)N[C@@H](CCCCN)C(=O)N[C@@H](CCCCN)C(=O)N[C@@H](Cc1ccccc1)C(=O)N[C@@H](CCCNC(=N)N)C(=O)N[C@@H](CCCCN)C(N)=O)C(C)C)C(C)C)[C@@H](C)CC)C(C)C` [Ctn retro] (H-FPITVGIVMPKKFIKKLRKKVSKKVKKFFKKFRK-NH2), the “MIC A. baumannii” value in data set [1] came out at 1.56 µM (≈ 6.48 µg/mL). The “MIC E. coli” value in data set [2] stood at 0.78 µM (≈ 3.24 µg/mL). For the same compound, the “MIC Pseudomonas sp.” value in data set [3] worked out at 1.56 µM (≈ 6.48 µg/mL).
In the case of `CC[C@@H](C)[C@@H](NC(=O)[C@@H](CCCCN)NC(=O)[C@@H](CCCCN)NC(=O)[C@@H](CC(C)C)NC(=O)[C@@H](CCCNC(=N)N)NC(=O)[C@@H](CCCCN)NC(=O)[C@H](N)CCCCN)C(=O)N[C@H](Cc1ccccc1)C(=O)N[C@H](CCCCN)C(=O)N[C@H](CCCCN)C(=O)N1CCC[C@@H]1C(=O)N[C@H](CCSC)C(=O)N[C@@H](C(=O)N[C@@H](C(=O)NCC(=O)N[C@@H](C(=O)N[C@@H](C(=O)N[C@@H](C(=O)N1CCC[C@@H]1C(=O)N[C@H](Cc1ccccc1)C(N)=O)[C@H](C)CC)[C@H](C)O)C(C)C)[C@H](C)CC)C(C)C` [Ctn[15-34] enantio] (H-[dK][dK][dR][dL][dK][dK][dI][dF][dK][dK][dP][dM][dV][dI]G[dV][dT][dI][dP][dF]-NH2), in data set [1], the “MIC A. baumannii” value worked out at 0.39 µM (≈ 0.925 µg/mL). Further, the “MIC E. coli” value in data set [2] came to 0.16 µM (≈ 0.379 µg/mL). Besides, in data set [3], the “MIC Pseudomonas sp.” value was 0.1 µM (≈ 0.237 µg/mL).
Consider `CC[C@H](C)[C@H](NC(=O)CNC(=O)[C@@H](NC(=O)[C@@H](NC(=O)[C@@H](NC(=O)[C@@H]1CCCN1C(=O)[C@@H](N)Cc1ccccc1)[C@@H](C)CC)[C@@H](C)O)C(C)C)C(=O)N[C@H](C(=O)N[C@@H](CCSC)C(=O)N1CCC[C@H]1C(=O)N[C@@H](CCCCN)C(=O)N[C@@H](CCCCN)C(=O)N[C@@H](Cc1ccccc1)C(=O)N[C@H](C(=O)N[C@@H](CCCCN)C(=O)N[C@@H](CCCCN)C(=O)N[C@@H](CC(C)C)C(=O)N[C@@H](CCCNC(=N)N)C(=O)N[C@@H](CCCCN)C(=O)N[C@@H](CCCCN)C(N)=O)[C@@H](C)CC)C(C)C` [Ctn[15-34] retro] (H-FPITVGIVMPKKFIKKLRKK-NH2), for which the “MIC A. baumannii” value in data set [1] came out at 0.78 µM (≈ 1.85 µg/mL). Also, the “MIC E. coli” value in data set [2] was 0.16 µM (≈ 0.379 µg/mL). The “MIC Pseudomonas sp.” value in data set [3] is below 0.05 µM. Also, the “IC50 (cell viability) human fibroblast 1BR3G” value in data set [4] is “≈ 15.84 μM”.
Turning to `CC[C@@H](C)[C@@H](NC(=O)CNC(=O)[C@H](NC(=O)[C@H](NC(=O)[C@H](NC(=O)[C@H]1CCCN1C(=O)[C@H](N)Cc1ccccc1)[C@H](C)CC)[C@H](C)O)C(C)C)C(=O)N[C@@H](C(=O)N[C@H](CCSC)C(=O)N1CCC[C@@H]1C(=O)N[C@H](CCCCN)C(=O)N[C@H](CCCCN)C(=O)N[C@H](Cc1ccccc1)C(=O)N[C@@H](C(=O)N[C@H](CCCCN)C(=O)N[C@H](CCCCN)C(=O)N[C@H](CC(C)C)C(=O)N[C@H](CCCNC(=N)N)C(=O)N[C@H](CCCCN)C(=O)N[C@H](CCCCN)C(N)=O)[C@H](C)CC)C(C)C` [Ctn[15-34] retroenantio] (H-[dF][dP][dI][dT][dV]G[dI][dV][dM][dP][dK][dK][dF][dI][dK][dK][dL][dR][dK][dK]-NH2), in data set [1], the “MIC A. baumannii” value stood at 0.39 µM (≈ 0.925 µg/mL). Moreover, the “MIC E. coli” value in data set [2] is 0.16 µM (≈ 0.379 µg/mL). The “MIC Pseudomonas sp.” value in data set [3] worked out at 0.1 µM (≈ 0.237 µg/mL). Besides, the half-life at 0.5 mM in data set [5] (aliquots 0–1440 min, read-out: t1/2 in human serum) is 15.3 h.
